Patent US20230129866A1 (PureTech LYT 100, Inc., priority 2020, published 2023)

Experiments:
[1] = test system: ICAM-1; vascular hyperpermeability; TGF-β and downstream signaling; assay: Other studies for pirfenidone mechanisms in acute and chronic interstitial lung diseases
[2] = rat, in vivo
Description: The original male TK animals received 1000 mg/kg of SD-559 on Day 1 and continued on study. The protocol was amended to add additional TK male animals in Group 6 for Day 1 collection of TK samples at 875 mg/kg.
Blood samples were collected from 3 subsets of 3 animals/sex on Day 1 and Day 28 at pre-dose, 0.25, 0.5, 1, 2, 4. 8 and 24 hours (hr) post-dose for groups 2 to 6 and from one subset of 3 animals/sex at 0.25 hr post-dose for the vehicle group (group 1). […] Non-compartmental analysis (NCA) of plasma concentration data was conducted using Phoenix® WinNonlin®, version 8.0.

L929 cells [3] = assay: TGF-induced collagen synthesis in L929 cells, 96-well plate format (SIRCOL); assay type: cell-based; settings: 72 hrs, FIG. 4C
Description: Five thousand L929 cells were plated in complete DMEN and incubated until confluency for 3 days. Medium was removed and complete DMEM containg Prolin (20 μg/ml) and ascorbic acid (10 μM) was added. […] Cells were further incubated for 72 hrs. Supernatant was removed, 0.5% glutaraldehyde was added for 30 min at RT, removed, washed 3× with ddwater, 0.5 M acetic acid was added for 30 min at RT, removed, washed with water, air dried and 100 μl SIRCOL dye was added for 5 h at RT. Dye was removed, plate was washed extensively under running water, air dried and 200 μl of 0.5 M NaOH was added, plates were shaken at RT for 1 h, and OD was determined at 600 nm.

L929 cells [4] = assay: TGF-induced soluble fibronectin synthesis in L929 cells (ELISA); assay type: cell-based; settings: 500 μM; FIG. 4E
Description: (§1) Five thousand L929 cells were plated in complete DMEN and incubated until confluency for 3 days.
Fibronectin is another important component of fibrotic lungs as it is induced by TGF-β and functions both as a structural component of extra cellular matrix as well as well as a ligand for integrin receptors. Just like soluble collagen, binding of fibronectin to integrin receptors induces the proliferation of fibroblast and epithelial cells of the lungs.

L929 cells [5] = assay: TGF-induced soluble collagen synthesis in L929 cells (ELISA); assay type: cell-based; settings: 500 μM, 72 hrs, FIG. 4D
Description: as §1

## [2H]C([2H])([2H])c1ccc(=O)n(-c2ccccc2)c1 [LYT-100, 5-(methyl-d3)-1-phenylpyridin-2-(1H)-one]
[1]
  Effect on ICAM-1: downregulates
  Effect on TGF-β and downstream signaling: suppresses
  Effect on vascular hyperpermeability: reduces
[2]
  Accumulation after multiple dosing for 28 Days: No accumulation
L929 cells [3]; 500 μM 1 h prior to TGF-β 5 ng/ml
  Effect on TGF-β-induced total collagen levels: inhibited or reduced
L929 cells [3]; 500 μM
  Effect on total collagen level in the absence of TGF-β induction: signficantly inhibited or reduced
L929 cells [4]
  Effect on soluble fibronectin levels, in the absence and presence of TGF-β-induction: signficantly reduced
L929 cells [5]
  Effect on soluble collagen levels in the absence of TGF-β-induction: signficantly reduced
L929 cells [5]; TGF-β 5 ng/ml
  Effect on TGF-β-induced soluble collagen levels: significantly inhibits
